Experimental data reported in patent US12370143B2, “Compound or salt thereof and lipid particles” (FUJIFILM Corporation, priority 2018, dated 2025).
Like-named read-outs stand apart in the source and are kept apart here. Blank lines part the entries; values can stand above or below the molecule they belong to.

What was measured:
[1] = Particle size of nucleic acid lipid particles (Luc2-siRNA); format: physicochemical; conditions: compound/DSPC/cholesterol/DMG-PEG2000 50/10/38.5/1.5
Outline: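 Particle size was read by ELS-Z2 light scattering on nucleic acid lipid particles after dialysis against PBS. These were made by micromixing Luc2-siRNA (19.7 μmol/L, pH 4 acetate) with ethanolic lipids (test lipid/DSPC/cholesterol/DMG-PEG2000 50/10/38.5/1.5, 20 mmol/L) at 3:1 water:oil, siRNA/lipid 339 mol/mol.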

[2] = system: DMS273 cells constantly expressing Luc; assay: Target reporter protein (Luc) knockdown in cell, reporter protein assay; format: cell-based; conditions: Homo sapiens, DMS-273
Outline: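 Nucleic acid lipid particles added at final 0.1 to 100 nmol/L to DMS273 human SCLC cells stably expressing Luc2, 24 hr exposure then 24 hr further culture after medium change. Luc quantified by Steady Glo luminescence after viable cell count; knockdown efficiency calculated and IC50 taken as concentration giving 50% Luc reduction.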

[3] = Nucleic acid encapsulation rate of nucleic acid lipid particles (FVII-siRNA); format: physicochemical
Outline: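 Total nucleic acid was measured by adding 30 μL of 3 mol/L sodium acetate and 9 μL of glycogen to 60 μL of FVII-siRNA lipid particles, then precipitating with 1.5 mL ethanol, centrifuging, air-drying, redissolving in water, and reading on a Nanodrop. Outer-phase nucleic acid came from a RiboGreen assay (ex 485 nm, em 535 nm) on samples diluted 10,000× in 1×TE. Encapsulation (%) = (total − outer)/total × 100.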

[4] = system: Factor VII (FVII) protein; assay: Measurement of Factor VII (FVII) protein in mouse plasma after FVII-siRNA lipid particles; format: in vivo, C57BL6/J mice; conditions: 0.1 mg/kg caudal vein, plasma 24 hours after administration, PBS group = 100%
Outline: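 C57BL6/J mice (n=3) received FVII-siRNA nucleic acid lipid particles at 0.1 mg/kg into the tail vein; controls got PBS. Each value is the percentage of the PBS-group FVII level.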

[5] = Encapsulation rate of siRNA in nucleic acid lipid particles (Luc2-siRNA); format: physicochemical; conditions: compound/DSPC/cholesterol/DMG-PEG2000 50/10/38.5/1.5
Outline: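 Encapsulation rate was calculated as (total − outer-phase siRNA)/total ×100. Total siRNA was quantified spectrophotometrically after lipid-dissolving ethanol precipitation, and unencapsulated siRNA by RiboGreen in TE (ex 485/em 535 nm). The particles were test lipid/DSPC/cholesterol/DMG-PEG2000 at 50/10/38.5/1.5, formed by microfluidic mixing with Luc2-siRNA at pH 4 and dialyzed against PBS.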

[6] = Particle size of nucleic acid lipid particles (FVII-siRNA); format: physicochemical
Outline: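 Lipid particles formed by micromixing ethanolic ionizable lipid/DSPC/cholesterol/DMG-PEG2000 (50/10/38.5/1.5 mol) with siRNA in pH 4 acetate buffer (3:1 water:oil), diluted with PBS and dialysed against PBS.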

[7] = Luc2-siRNA lipid particles using the compound, siRNA 0.1 to 100 nmol/L, concentration at which Luc expression is knocked down to 50%, read-out: IC50

SMILES: CCCCC/C=C\C/C=C\CCCCCCCCC(CCCCCCCC/C=C\C/C=C\CCCCC)OC(=O)OCCN(CCN(CC)CC)Cc1ccccc1 [Example 51, 2-(Benzyl(2-(diethylamino)ethyl)amino)ethyl((6Z,9Z,28Z,31Z)-heptatriaconta-6,9,28,31-tetraen-19-yl)carbonate]
Particle size (nm) [1]: 69 nm
IC50 [2, 7]: 37 nM
Nucleic acid encapsulation rate [3]: 84%
Relative amount of FVII protein (%) [4]: 19%
Nucleic acid encapsulation rate [5]: 76%
Particle size (nm) [6]: 71 nm

SMILES: CCCCC/C=C\C/C=C\CCCCCCCCC(CCCCCCCC/C=C\C/C=C\CCCCC)OC(=O)OCCN(CCCCCCCC)CCN(C)C [Example 52, 2-((2-(Dimethylamino)ethyl)(octyl)amino)ethyl((6Z,9Z,28Z,31Z)-heptatriaconta-6,9,28,31-tetraen-19-yl)carbonate]
Particle size (nm) [1]: 79.9 nm
IC50 [2, 7]: 27 nM
Nucleic acid encapsulation rate [3]: 83%
Relative amount of FVII protein (%) [4]: 19%
Nucleic acid encapsulation rate [5]: 80%
Particle size (nm) [6]: 73.1 nm

SMILES: CCCCCCCCCCC(CCCCCCCCCCC(=O)OCC(CCCC)CCCCCC)OC(=O)OCCN(CC)CCN(CC)CC (stereo not drawn) [Example 66, 2-Butyloctyl 12-decyl-3,6-diethyl-10-oxo-9,11-dioxa-3,6-diazatricosan-23-oate]
Particle size (nm) [1]: 69.8 nm
IC50 [2, 7]: 28 nM
Nucleic acid encapsulation rate [3]: 98%
Relative amount of FVII protein (%) [4]: 17%
Nucleic acid encapsulation rate [5]: 73%
Particle size (nm) [6]: 85.4 nm

SMILES: CCCCCCCCCCC(CCCCCCCCC(=O)OCC(CCCC)CCCCCC)OC(=O)OCCN(CC)CCN(CC)CC (stereo not drawn) [Example 68, 2-Butyloctyl 12-decyl-3,6-diethyl-10-oxo-9,11-dioxa-3,6-diazahenicosan-21-oate]
Particle size (nm) [1]: 70.7 nm
IC50 [2, 7]: 37 nM
Nucleic acid encapsulation rate [3]: 91%
Relative amount of FVII protein (%) [4]: 9%
Nucleic acid encapsulation rate [5]: 97%
Particle size (nm) [6]: 84.5 nm

SMILES: CCCCCCCCCCC(CCCCCCCCC(=O)OCC(CCCC)CCCCCC)OC(=O)OCCN(CCN(CC)CC)C(C)C (stereo not drawn) [Example 69, 2-Butyloctyl 12-decyl-3-ethyl-6-isopropyl-10-oxo-9,11-dioxa-3,6-diazahenicosan-21-oate]
Particle size (nm) [1]: 67.6 nm
IC50 [2, 7]: 28 nM
Nucleic acid encapsulation rate [3]: 97%
Relative amount of FVII protein (%) [4]: 6%
Nucleic acid encapsulation rate [5]: 98%
Particle size (nm) [6]: 86.8 nm

SMILES: CCCCCCC(CCCC)COC(=O)CCCCCCCCC(CCCCCCCCC(=O)OCC(CCCC)CCCCCC)OC(=O)OCCN(CC)CCN(CC)CC (stereo not drawn) [Example 72, Bis(2-butyloctyl)10-(((2-((2-(diethylamino)ethyl)(ethyl)amino)ethoxy)carbonyl)oxy)nonadecanedioate]
Particle size (nm) [1]: 74.2 nm
IC50 [2, 7]: 31 nM
Nucleic acid encapsulation rate [3]: 85%
Relative amount of FVII protein (%) [4]: 6%
Nucleic acid encapsulation rate [5]: 81%
Particle size (nm) [6]: 72.4 nm

SMILES: CCCCCCCCCC(=O)OCCCCCCC(CCCCCCOC(=O)CC(CCCCCCC)CCCCCCC)OC(=O)OCCN(CC)CCN(CC)CC (stereo not drawn) [Example 78, 12-(6-(Decanoyloxy)hexyl)-3,6-diethyl-10-oxo-9,11-dioxa-3,6-diazooctadecan-18-yl 3-heptyldecanoate]
Particle size (nm) [1]: 71.7 nm
IC50 [2]: 16 nM
Nucleic acid encapsulation rate [3]: 78%
Relative amount of FVII protein (%) [4]: 10%
Nucleic acid encapsulation rate [5]: 75%
Particle size (nm) [6]: 74.2 nm

SMILES: CCCCCCCCCC(=O)OCCN(CCOC(=O)OC(CCCCCC)CCCCCCCCC(=O)OCC(CCCC)CCCCCC)CCN(CC)CC (stereo not drawn) [Example 87, 2-Butyloctyl 6-(2-(decanoyloxy)ethyl)-3-ethyl-12-hexyl-10-oxo-9,11-dioxa-3,6-diazahenicosan-21-oate]
Particle size (nm) [1]: 69.2 nm
IC50 [2, 7]: 34 nM
Nucleic acid encapsulation rate [3]: 87%
Relative amount of FVII protein (%) [4]: 3%
Nucleic acid encapsulation rate [5]: 79%
Particle size (nm) [6]: 69.3 nm

SMILES: CCCCCCCC(=O)OCCN(CCOC(=O)OC(CCCCCC)CCCCCCCCC(=O)OCC(CCCC)CCCCCC)CCN(CC)CC (stereo not drawn) [Example 88, 2-Butyloctyl 3-ethyl-12-hexyl-6-(2-(octanoyloxy)ethyl)-10-oxo-9,11-dioxa-3,6-diazahenicosan-21-oate]
Particle size (nm) [1]: 74.6 nm
IC50 [2, 7]: 23 nM
Nucleic acid encapsulation rate [3]: 83%
Relative amount of FVII protein (%) [4]: 2%
Nucleic acid encapsulation rate [5]: 81%
Particle size (nm) [6]: 78.7 nm

SMILES: CCCCCCCCC(CCCCCC)COC(=O)CCCCCCC(CCCCCC)OC(=O)OCCN(CCN(CC)CC)C(C)C (stereo not drawn) [Example 94, 2-Hexyldecyl 3-ethyl-12-hexyl-6-isopropyl-10-oxo-9,11-dioxa-3,6-diazanonadecan-19-oate]
Particle size (nm) [1]: 72.7 nm
IC50 [2, 7]: 39 nM
Nucleic acid encapsulation rate [3]: 75%
Relative amount of FVII protein (%) [4]: 8%
Nucleic acid encapsulation rate [5]: 76%
Particle size (nm) [6]: 86.1 nm

SMILES: CCCCCCCCC(CCCCCC)COC(=O)CCCCCCCCC(CCCCCC)OC(=O)OCCN(CCOC(=O)CCCCC)CCN(CC)CC (stereo not drawn) [Example 100, 2-Hexyldecyl 3-ethyl-6-(2-(hexanoyloxy)ethyl)-12-hexyl-10-oxo-9,11-dioxa-3,6-diazahenicosan-21-oate]
Particle size (nm) [1]: 76.7 nm
IC50 [2, 7]: 26 nM
Nucleic acid encapsulation rate [3]: 80%
Relative amount of FVII protein (%) [4]: 2%
Nucleic acid encapsulation rate [5]: 82%
Particle size (nm) [6]: 85.1 nm

Second part, led by results:

Particle size (nm) [1]: 72.3 nm
IC50 [2, 7]: 19 nM
Nucleic acid encapsulation rate [3]: 82%
Nucleic acid encapsulation rate [5]: 74%
Particle size (nm) [6]: 79.4 nm
SMILES: CCCC/C=C\CCCCCCCC(=O)OCCCCCCC(CCCCCCOC(=O)CCCCCCC/C=C\CCCC)OC(=O)OCCN(CC)CCN(CC)CC [Example 47, 7-(((2-((2-(Diethylamino)ethyl)(ethyl)amino)ethoxy)carbonyl)oxy)tridecane-1,13-diyl(9Z,9′Z)-bis(tetradec-9-enoate)]
Relative amount of FVII protein (%) [4]: 11%

Particle size (nm) [1]: 65.6 nm
IC50 [2, 7]: 13 nM
Nucleic acid encapsulation rate [3]: 84%
Nucleic acid encapsulation rate [5]: 79%
Particle size (nm) [6]: 65.4 nm
SMILES: CCCCCCCCCCCCC(CCCCCCCCC(=O)OCC(CCCC)CCCCCC)OC(=O)OCCN(CC)CCN(CC)CC (stereo not drawn) [Example 50, 2-Butyloctyl 12-dodecyl-3,6-diethyl-10-oxo-9,11-dioxa-3,6-diazahenicosan-21-oate]
Relative amount of FVII protein (%) [4]: 11%

Particle size (nm) [1]: 60.9 nm
IC50 [2, 7]: 7 nM
Nucleic acid encapsulation rate [3]: 78%
Nucleic acid encapsulation rate [5]: 75%
Particle size (nm) [6]: 67.7 nm
SMILES: CCCCCCCCCCCCC(CCCCCCCCC(=O)OCC(CCCC)CCCCCC)OC(=O)OCCN(CCN(CC)CC)C(C)C (stereo not drawn) [Example 61, 2-Butyloctyl 12-dodecyl-3-ethyl-6-isopropyl-10-oxo-9,11-dioxa-3,6-diazahenicosan-21-oate]
Relative amount of FVII protein (%) [4]: 8%

Particle size (nm) [1]: 61.5 nm
IC50 [2, 7]: 5 nM
Nucleic acid encapsulation rate [3]: 86%
Nucleic acid encapsulation rate [5]: 75%
Particle size (nm) [6]: 65.7 nm
SMILES: CCCCC/C=C\C/C=C\CCCCCCCCC(CCCCCCCC/C=C\C/C=C\CCCCC)OC(=O)OCCN(CCC)CCN(C)C(C)C [Example 64]
Relative amount of FVII protein (%) [4]: 10%

Particle size (nm) [1]: 65.4 nm
IC50 [2, 7]: 8 nM
Nucleic acid encapsulation rate [3]: 83%
Nucleic acid encapsulation rate [5]: 76%
Particle size (nm) [6]: 79.1 nm
SMILES: CCCCCCCCCC(CCCCCCCCC(=O)OCC(CCCC)CCCCCC)OC(=O)OCCN(CC)CCN(CC)CC (stereo not drawn) [Example 75, 2-Butyloctyl 3,6-diethyl-12-nonyl-10-oxo-9,11-dioxa-3,6-diazahenicosan-21-oate]
Relative amount of FVII protein (%) [4]: 17%

Particle size (nm) [1]: 70.4 nm
IC50 [2, 7]: 22 nM
Nucleic acid encapsulation rate [3]: 73%
Nucleic acid encapsulation rate [5]: 70%
Particle size (nm) [6]: 67.8 nm
SMILES: CCCCCCCC/C=C\CCCCCCCC(=O)OCCN(CCCN(CC)CC)CCOC(=O)OC(CCCCCC)CCCCCCCCC(=O)OCC(CCCC)CCCCCC (stereo not drawn) [Example 93, 2-Butyloctyl 3-ethyl-13-hexyl-7-(2-(oleoyloxy)ethyl)-11-oxo-10,12-dioxa-3,7-diazadocosan-22-oate]
Relative amount of FVII protein (%) [4]: 7%
